In brackets after ≈: the same amount, converted by molar mass.

The assay deals with Mycobacterium tuberculosis. As to the kind of experiment: Antimicrobial activity against Mycobacterium tuberculosis H37Rv after 7 days by microplate alamar blue assay. Conditions: 168 h. In kind it is functional. (In general: Alamar Blue is a resazurin reagent that responds to reducing activity.)
In the case of `c1ccc(-c2cc(Cn3cc(Cn4ccc5cncnc54)nn3)on2)cc1`, the MIC was 0.78 µg/mL (≈ 2.18 µM). The same measure for `Fc1ccc(-c2cc(Cn3cc(Cn4ccc5cncnc54)nn3)on2)cc1`: 0.78 µg/mL (≈ 2.08 µM). Compound `c1ccc(Sc2ccccc2-n2cc(Cn3ccc4cncnc43)nn2)cc1` gave an MIC of 6.25 µg/mL (≈ 16.3 µM). Compound `Fc1ccc(Cn2cc(Cn3ccc4cncnc43)nn2)cc1` registered an MIC of more than 25 µg/mL. As for `O=[N+]([O-])c1ccc(Cn2cc(Cn3ccc4cncnc43)nn2)cc1`, the MIC is more than 25 µg/mL. `Brc1ccccc1Cn1cc(Cn2ccc3cncnc32)nn1` yielded an MIC of more than 25 µg/mL. For the compound `COc1cccc(-n2cc(Cn3ccc4cncnc43)nn2)c1[N+](=O)[O-]`, it took 25 µg/mL (≈ 71.2 µM) to inhibit growth (MIC). The same measure for `Fc1ccc(Oc2ccc(Cn3cc(Cn4ccc5cncnc54)nn3)cc2)cc1`: 3.12 µg/mL (≈ 7.79 µM); for `O=c1oc2ccccc2cc1-n1cc(Cn2ccc3cncnc32)nn1`: 3.12 µg/mL (≈ 9.06 µM); for `COc1ccc(Cn2cc(Cn3ccc4cncnc43)nn2)cc1`: more than 25 µg/mL. With `Oc1ccccc1-n1cc(Cn2ccc3cncnc32)nn1` the figure was 6.25 µg/mL (≈ 21.4 µM). The compound `CCOC(=O)/C=C/Cn1cc(Cn2ccc3cncnc32)nn1` returned a minimal inhibitory concentration (MIC) of more than 25 µg/mL.

For `c1ccc(Cn2cc(Cn3ccc4cncnc43)nn2)cc1`, the MIC is more than 25 µg/mL. Compound `Fc1ccccc1Cn1cc(Cn2ccc3cncnc32)nn1` yielded an MIC of more than 25 µg/mL. With `Clc1ccc(Cn2cc(Cn3ccc4cncnc43)nn2)cc1` the figure was 3.12 µg/mL (≈ 9.61 µM). The same measure for `C=CCn1cc(Cn2ccc3cncnc32)nn1`: 6.25 µg/mL (≈ 26 µM); for `O=[N+]([O-])c1ccc(-n2cc(Cn3ccc4cncnc43)nn2)cc1`: more than 25 µg/mL. Turning to `Cc1onc(-c2ccccc2)c1Cn1cc(Cn2ccc3cncnc32)nn1`, the MIC was found to be 6.25 µg/mL (≈ 16.8 µM).

Consider `Clc1ccc(Oc2ccccc2)cc1-n1cc(Cn2ccc3cncnc32)nn1`, for which inhibition of growth (MIC) required 6.25 µg/mL (≈ 15.5 µM).

Compound `COC(=O)CCn1cc(Cn2ccc3cncnc32)nn1` showed an MIC of 1.56 µg/mL (≈ 5.45 µM). Regarding `c1ccc(-c2cc(Cn3cc(Cn4ccc5cncnc54)nn3)cc(-c3ccccc3)n2)cc1`, the MIC stood at 6.25 µg/mL (≈ 14.1 µM). `Fc1cccc(-n2cc(Cn3ccc4cncnc43)nn2)c1` returned a minimal inhibitory concentration (MIC) of more than 25 µg/mL. Turning to `Brc1ccc(Cn2cc(Cn3ccc4cncnc43)nn2)cc1`, the minimum inhibitory concentration (MIC) was more than 25 µg/mL. The same measure for `Clc1ccc(-n2cc(Cn3ccc4cncnc43)nn2)cc1`: 25 µg/mL (≈ 80.5 µM). In turn, `O=C(O)c1cn(C2CC2)c2cc(N3CCNCC3)c(F)cc2c1=O` [CIPROFLOXACIN] yielded an MIC of 1.56 µg/mL (≈ 4.71 µM). As for `CC[C@@H](CO)NCCN[C@@H](CC)CO` [ETHAMBUTOL], the lowest concentration to inhibit growth (MIC) was 1.56 µg/mL (≈ 7.64 µM). `NNC(=O)c1ccncc1` [ISONIAZID] had a minimum inhibitory concentration (MIC) of 0.1 µg/mL (≈ 0.729 µM). `CO[C@H]1/C=C/O[C@@]2(C)Oc3c(C)c(O)c4c(O)c(c(/C=N/N5CCN(C)CC5)c(O)c4c3C2=O)NC(=O)/C(C)=C\C=C\[C@H](C)[C@H](O)[C@@H](C)[C@@H](O)[C@@H](C)[C@H](OC(C)=O)[C@@H]1C` [RIFAMPIN] yielded an MIC of 0.2 µg/mL (≈ 0.243 µM).

Usually MIC stands for the least concentration at which growth counts as inhibited. Low values mean greater potency, high ones weaker potency.

The values above are taken from ChEMBL document CHEMBL4371020, “Synthesis and biological evaluation of 1H-pyrrolo[2,3-d]pyrimidine-1,2,3-triazole derivatives as novel anti-tubercular agents” (2019).
